How the values were obtained:
[1] = test system: PC3/SFN cells xenografted tumours; test: Urine hCG in nude mice bearing PC3/SFN-hCG(myc)-Amp reporter xenografts; format: in vivo, congenitally athymic nude mice; conditions: for increase of normalised urine hCG levels: 48 hours post-dosing vs pre-dose, normalised against urine creatinine, relative to tumour volume; for hCG expression in individual mice compared to vehicle controls: single dose ip (etoposide 40 mg/kg, camptothecin 30 mg/kg), urine 48 hours after drug administration
Experimental: PC3 cells stably transfected with the SFN-hCG(myc)-Amp reporter construct were allowed to grow as solid subcutaneous tumours in congenitally athymic nude mice. The mice were then treated with anticancer drugs that act by inducing G2/M arrest. The drugs chosen for this exemplification were etoposide and camptothecin [12]. […] Wild-type and engineered PC3 tumour cell lines were cultured in RPMI medium supplemented with 10%-15% heat inactivated foetal calf serum, 2 mM L-glutamine, penicillin (50 IU/ml), streptomycin (50 μg/ml). Culture medium for PC3/SFN cells also contained G418 (200 μg/ml). Cultures were incubated in a humidified incubator at 37° C., 5% CO2. Cells were harvested, pooled, centrifuged, and re-suspended in cold medium. This was mixed with an equal volume of cold Matrigel, so that the tumour cell injection solution was a 50:50 mixture of tumour cells/medium and Matrigel for each cell line. Wild type or transfected PC3 cells were injected at 2.5×10^6 per animal. All cell lines were injected in a volume of 100 μl in the right hand flank only. The study consisted of 4 groups in total, each containing 4 animals. One group of mice was implanted with wild type PC3 cells and the remaining 3 groups with engineered cells. Tumour growth was measured twice-weekly following cell implantation until tumours reached 2-5 mm in diameter. Tumour volume (V) was calculated using the formula: V= 4/3π((d1+d2)/4)^3, where d=mean diameter (n=2) Treatment began 5 weeks after tumour implantation. Wild type PC3-xenografted mice remained untreated; all other mice were administered vehicle only (DMSO/saline) or test substances. Single administrations of Camptothecin (30 mg/kg) and Etoposide (40 mg/kg) were administered ip at 10 ml/kg. Additionally, Etoposide (25 mg/kg) was administered to a single group of mice over three consecutive days (ip; 10 ml/kg). Urine samples were harvested before, during and after drug administration. Animals were sacrificed 48 hours after treatment. Urine was analysed for hCG and values normalised against urine creatinine levels.

[2] = test system: PC3 cells containing the SFN-hCG(myc)-Amp reporter construct; test: hCG induction in PC3 cells transiently transfected with SFN-hCG(myc)-Amp reporter construct (ELISA of medium); format: cell-based, human; conditions: 50 μM etoposide, 24 hours, vs untreated
Experimental: The SFN-hCG(myc)-Amp reporter construct was transfected into PC3 cells on 6-well tissue culture plates using FuGene reagent (Roche, Lewes, East Sussex). Construct DNA (equivalent to 1 μg/well) was added to FuGene reagent (3 μl/well) and made up to 100 μl/well with serum free medium. The medium in which the cells were growing was aspirated off and replaced with 100 μl of the above mixture per well. For transient transfections, the cells were used for experiments 24 hours after the addition of the construct.

[3] = test system: PC3 cells stably engineered to contain the SFN-hCG(myc)-Amp construct; test: hCG induction in PC3 cells stably engineered to contain the SFN-hCG(myc)-Amp construct (ELISA of medium); format: cell-based, human; conditions: stable PC3 cell line, 24 hours
Experimental: To generate a stable cell line, transfection was carried out as above. After 24 hours the cells were trypsinised and transferred to 10 cm tissue culture dishes (one well of a six well plate per 10 cm dish). The cells were allowed to grow on these dishes for 7 days prior to selection. After this time, G418 (20 ng/ml in cell culture medium) was added and the dishes maintained until colonies became visible (approximately one week). Individual colonies were picked using cloning discs soaked in typsin and transferred to individual wells of a 24 well plate. The colonies were then expanded to 6 well plates then T25 flasks and grown up until sufficient cells were present for use in in vitro inductions and xenograft experiments. Following the generation of a stable cell line containing the SFN-hCG(myc)-Amp reporter construct, the cells were further tested using etoposide. The cells were plated out on 6 well plates and allowed to adhere overnight. The next day they were treated with etoposide (50 or 400 μM) or vehicle (dimethyl sulphoxide). After 24 hours in the presence or absence of etoposide, samples of the medium were taken and assayed for hCG by enzyme-linked immunosorbent assay as above.

| SMILES | increase of normalised urine hCG levels ([1]; single dose 30 mg/kg ip) | hCG expression in individual mice compared to vehicle controls [1] | amount of hCG secreted into the surrounding medium [2] | amount of hCG secreted at higher concentration ([3]; 400 μM vs 50 μM etoposide) | amount of hCG secreted into the surrounding medium ([3]; etoposide 50 or 400 μM, vs vehicle (dimethyl sulphoxide)) | hCG levels at 24 and 48 hours following a third dose ([1]; 3 consecutive doses of 25 mg/kg ip, 24 and 48 hours after third dose) | normalised hCG expression following the first dose ([1]; 3 consecutive doses of 25 mg/kg ip, after first dose) | normalised hCG expression following a second dose ([1]; 3 consecutive doses of 25 mg/kg ip, after second dose) | anti-tumour effect against the PC3/SFN cells ([1]; 3 consecutive doses of 25 mg/kg ip, inferred from the drop in urine hCG) | increase of normalised urine hCG levels ([1]; single dose 40 mg/kg ip) |
| --- | --- | --- | --- | --- | --- | --- | --- | --- | --- | --- |
| CC[C@@]1(O)C(=O)OCc2c1cc1n(c2=O)Cc2cc3ccccc3nc2-1 [camptothecin] | 5.29 fold | significantly increased |  |  |  |  |  |  |  |  |
| COc1cc([C@@H]2c3cc4c(cc3[C@@H](O[C@@H]3O[C@@H]5CO[C@@H](C)O[C@H]5[C@H](O)[C@H]3O)[C@H]3COC(=O)[C@H]23)OCO4)cc(OC)c1O [etoposide] |  | significantly increased | increased | increased | increased | dropped to control levels | sharp increase | remained at this level | exhibited an anti-tumour effect | 4.29 fold |
